We go through 19 compounds from patent US20220402925A1, “COMPOUNDS AND METHODS FOR THE TREATMENT OF CYSTIC FIBROSIS” (Flatley Discovery Lab, LLC, priority 2019, published 2022).

Molecules are shown by their SMILES.

In this assay the target is T1, F508del CFTR (Homo sapiens, UniProt P13569, DEL508-508).
T1 construct: Primary CF airway epithelial cells were obtained from the UNC Cystic Fibrosis Tissue Procurement and Cell Culture Core; host or cells: primary CF airway epithelial cells
T1 sequence (P13569 with tags, fused parts or gaps DEL508-508): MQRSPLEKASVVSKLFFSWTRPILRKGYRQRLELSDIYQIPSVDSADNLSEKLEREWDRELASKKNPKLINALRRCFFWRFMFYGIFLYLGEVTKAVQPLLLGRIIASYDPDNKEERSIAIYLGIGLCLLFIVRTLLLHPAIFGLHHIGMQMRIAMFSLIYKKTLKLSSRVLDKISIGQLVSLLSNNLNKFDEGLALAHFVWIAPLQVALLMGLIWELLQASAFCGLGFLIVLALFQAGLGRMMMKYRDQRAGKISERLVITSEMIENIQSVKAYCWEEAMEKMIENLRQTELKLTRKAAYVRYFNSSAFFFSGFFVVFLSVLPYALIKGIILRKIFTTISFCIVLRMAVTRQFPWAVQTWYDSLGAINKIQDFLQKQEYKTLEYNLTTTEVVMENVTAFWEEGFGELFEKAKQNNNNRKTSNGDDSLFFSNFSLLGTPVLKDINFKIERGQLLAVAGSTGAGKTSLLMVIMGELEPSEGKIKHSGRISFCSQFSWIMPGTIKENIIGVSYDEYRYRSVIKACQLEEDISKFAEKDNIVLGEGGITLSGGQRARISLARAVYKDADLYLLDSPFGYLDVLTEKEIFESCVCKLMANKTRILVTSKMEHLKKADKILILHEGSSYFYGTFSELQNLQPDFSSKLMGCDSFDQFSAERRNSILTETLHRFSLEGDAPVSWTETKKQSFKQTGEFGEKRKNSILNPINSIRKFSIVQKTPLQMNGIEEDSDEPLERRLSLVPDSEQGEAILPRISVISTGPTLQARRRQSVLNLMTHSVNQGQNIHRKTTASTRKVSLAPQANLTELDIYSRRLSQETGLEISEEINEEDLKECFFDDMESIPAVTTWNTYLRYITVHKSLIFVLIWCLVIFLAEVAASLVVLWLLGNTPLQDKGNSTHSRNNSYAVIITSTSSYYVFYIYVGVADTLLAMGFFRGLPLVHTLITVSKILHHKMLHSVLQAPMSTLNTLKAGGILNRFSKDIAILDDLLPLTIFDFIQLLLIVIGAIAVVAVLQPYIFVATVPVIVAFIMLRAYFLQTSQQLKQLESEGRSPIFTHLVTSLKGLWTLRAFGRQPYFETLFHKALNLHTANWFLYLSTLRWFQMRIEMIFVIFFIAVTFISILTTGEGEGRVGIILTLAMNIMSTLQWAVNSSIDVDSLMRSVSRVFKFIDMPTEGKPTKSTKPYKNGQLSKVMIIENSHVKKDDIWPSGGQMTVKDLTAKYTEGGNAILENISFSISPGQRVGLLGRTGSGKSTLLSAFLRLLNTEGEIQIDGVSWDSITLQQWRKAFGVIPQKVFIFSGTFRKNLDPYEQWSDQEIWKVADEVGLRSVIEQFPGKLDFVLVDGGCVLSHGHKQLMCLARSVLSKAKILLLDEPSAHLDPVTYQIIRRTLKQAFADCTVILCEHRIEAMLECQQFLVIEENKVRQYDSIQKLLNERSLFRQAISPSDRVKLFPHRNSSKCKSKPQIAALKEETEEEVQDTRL
Kind of assay: Equivalent current assay in primary CF airway epithelial cells (Corrector Activity, NAUC normalized to 3 μM VX809). The class given is cell-based. To be noted: NAUC as % of positive control (VX-809). Here is the method:
Primary CF airway epithelial cells were obtained from the UNC Cystic Fibrosis Tissue Procurement and Cell Culture Core. The cells are grown at 37° C. in a Heracell 150i incubator using growth media (BEGM, Fischer). Cells were then transferred to differentiation media (airway liquid interface media (ALI) media; Lechner J F and LaVeck M A, J. Tissue Culture Methods 1985, 9: 43-48) for a minimum of 4 weeks on coated Costar transwells. Two days before the assay the mucus on the apical surface of the cells was aspirated after incubating with 200 μL of differentiation media for at least thirty (30) minutes. One day before the assay test compounds were added to the basolateral surface of the cells at various test concentrations dissolved in DMSO. Duplicate wells were prepared giving a n=4 or n=6 protocol.
Cells were treated for 24 hours with various combinations and concentrations of the test articles, reference standard (3 μM VX809, positive control). Compounds stock solutions were prepared in DMSO and diluted 1/1000 into ALI media to their final assay concentration. Cells were treated with combination solutions (2 mL of each dilution) and incubated at 37° C. for 24 h.
For the equivalent current assay, cells on six Transwell (24-well) plates were treated. Each Transwell plate was filled with 200 μl of HBS on the apical surface and 2 ml on the basolateral surface. Plates were placed horizontally in a heated mount at 37° C. and equilibrated for 30 minutes. Resting current was measured for 15 min and then blocked by the apical addition of 5 μM benzamil. After 20 min, CFTR activator (10 μM forskolin) and potentiator (either 1 μM VX-770 or 3 μM FDL176) were added to both the apical and basolateral side to stimulate CFTR. An increase in chloride current is seen as an upward deflection of the trace. After another 60 min, CFTR-172 (a CFTR inhibitor, 20 μM) and/or bumetanide (20 uM) was added to block CFTR mediated chloride current.
The raw data, voltage vs. time and resistance vs. time for the equivalent current assay (sampling interval: 6 minutes) were transferred to Excel (Microsoft Office Professional, version 14.0.7106.5003) for analysis. CFTR specific current was computed from I=V/R (Ohms Law), the average amplitude of the increase in current elicited upon addition forskolin and ending upon addition of the CFTR channel specific blocker CFTR-172. This average is equivalent to the sum of the average forskolin activated and the average VX770-potentiated currents. The average current measured in vehicle (0.1% DMSO) treated cells, IV, was subtracted from the current for the test article, ITA, or from the corrector reference standard VX809 (3 uM, ISTD). For replicate measurements, the averaged vehicle subtracted response for the test article, was normalized to the averaged vehicle subtracted response of the reference corrector VX809 (3 μM).
INSC=(ITA−IV)(ave)/(ISTD−IV)(ave) (Equation 1)
A second endpoint, for the equivalent current assay, evaluated was NAUC, the normalized area under the curve (AUC) measuring the response after addition of forskolin and potentiator to the time point right before the addition of the CFTR inhibitor. The AUC is effectively the average response multiplied by the duration of the response. The AUC of the test article, AUCTA was then corrected by subtracting the average vehicle response, AUCV,ave over the same time range, and normalized as for the inhibitor-sensitive current to the difference of the corrector reference standard VX809 (3 μM VX809r,ave and the vehicle response:
NAUCTA=[AUCTA−AUCV,ave]/[AUCVx809r,ave−AUCV,ave] (Equation 2).
The normalized value for DMSO is 0.0 and for VX-809 alone is 1.0 for both of these equations.
Experiments were run with a minimum of n=4 replicates per concentration. Since the distribution for the ratio of two normal distributions is a Cauchy distribution, the median value must be used for the average and the average deviation must be used for the error of all normalized data. […]
`CCN(C(=O)Cn1nc(-c2cc(Cl)cc(OC)c2)c2oc(C3CC3)cc2c1=O)c1ccc2c(c1)OC(F)(F)O2` [Example 227]: the “Corr Activity (NAUC)” value is listed as “+++ (NAUC>70% of positive control)”.

For `CN(C(=O)Cn1nc(-c2cccc(C#N)c2)c2sccc2c1=O)c1ccc2c(c1)OC(F)(F)O2` [Example 7], the “Corr Activity (NAUC)” value is “+++ (NAUC>70% of positive control)”.

For the compound `COc1cc(C)cc(-c2nn(CC(=O)N(c3ccc4c(c3)OC(F)(F)O4)C3CC3)c(=O)c3nc[nH]c23)c1` [Example 395], the “Corr Activity (NAUC)” value is reported as “+ (NAUC<40% of positive control)”.

As for `CCN(C(=O)Cn1nc(-c2cc(F)cc(Cl)c2)c2[nH]cnc2c1=O)c1ccc2c(c1)OC(F)(F)O2` [Example 255], the “Corr Activity (NAUC)” value is “+++ (NAUC>70% of positive control)”.

Regarding `CCN(C(=O)Cn1nc(-c2cc(F)cc(C#N)c2)c2oc(C3CCC3)cc2c1=O)c1ccc2c(c1)OC(F)(F)O2` [Example 238], the “Corr Activity (NAUC)” value is listed as “++ (NAUC 70-40% of positive control)”.

In the case of `CCN(C(=O)Cn1nc(-c2cccc(C#N)c2)c2oc(CN3CCCCC3)cc2c1=O)c1ccc2c(c1)OC(F)(F)O2` [Example 201], the “Corr Activity (NAUC)” value is reported as “+++ (NAUC>70% of positive control)”.

As to `Cc1cc(-c2nn(CC(=O)N(c3ccc4c(c3)OC(F)(F)O4)C3CC3)c(=O)c3nc[nH]c23)cc(C(F)(F)F)c1` [Example 402], the “Corr Activity (NAUC)” value is on record as “++ (NAUC 70-40% of positive control)”.

With `CCN(C(=O)Cn1nc(-c2cc(C)cc(C(F)(F)F)c2)c2[nH]cnc2c1=O)c1ccc2c(c1)OC(F)(F)O2` [Example 279], the “Corr Activity (NAUC)” value is “++ (NAUC 70-40% of positive control)”.

Turning to `N#Cc1cccc(-c2nn(CC(=O)N3CC4(CC4)c4c3ccc3c4OC(F)(F)O3)c(=O)c3ccoc23)c1` [Example 58], the “Corr Activity (NAUC)” value is “+ (NAUC<40% of positive control)”.

Consider `CCN(C(=O)Cn1nc(-c2cc(F)cc(C(F)(F)F)c2)c2[nH]cnc2c1=O)c1ccc2c(c1)OC(F)(F)O2` [Example 268], for which the “Corr Activity (NAUC)” value is given as “++ (NAUC 70-40% of positive control)”.

For `O=C(Cn1nc(-c2cccc(F)c2)c2occc2c1=O)N1CCCc2c1ccc1c2OC(F)(F)O1` [Example 102], the “Corr Activity (NAUC)” value is reported as “++ (NAUC 70-40% of positive control)”.

Turning to `CN(C(=O)Cn1nc(-c2cccc(Cl)c2)c2oc(C(=O)NC(C)(C)C)cc2c1=O)c1ccc2c(c1)OC(F)(F)O2` [Example 205, N-(tert-butyl)-7-(3-chlorophenyl)-5-(2-((2,2-difluorobenzo[d][1,3]dioxol-5-yl)(methyl)amino)-2-oxoethyl)-4-oxo-4,5-dihydrofuro[2,3-d]pyridazine-2-carboxamide], the “Corr Activity (NAUC)” value is “+++ (NAUC>70% of positive control)”.

Consider `N#Cc1cc(Cl)cc(-c2nn(CC(=O)N3CCCc4c3ccc3c4OC(F)(F)O3)c(=O)c3ccoc23)c1` [Example 103], for which the “Corr Activity (NAUC)” value is reported as “++ (NAUC 70-40% of positive control)”.

Turning to `CC(C)COc1cc(F)cc(-c2nn(CC(=O)N(c3ccc4c(c3)OC(F)(F)O4)C3CC3)c(=O)c3nc[nH]c23)c1` [Example 384], the “Corr Activity (NAUC)” value is recorded as “++ (NAUC 70-40% of positive control)”.

Consider `CCN(C(=O)Cn1nc(-c2cc(C#N)cc(OC)c2)c2[nH]cnc2c1=O)c1ccc2c(c1)OC(F)(F)O2` [Example 286], for which the “Corr Activity (NAUC)” value is “+++ (NAUC>70% of positive control)”.

For `CCN(C(=O)Cn1nc(-c2cccc(C#N)c2)c2oc(C(=O)N(C)C(C)(C)C)cc2c1=O)c1ccc2c(c1)OC(F)(F)O2` [Example 208], the “Corr Activity (NAUC)” value is recorded as “+++ (NAUC>70% of positive control)”.

In the case of `CN(C(=O)Cn1nc(-c2cccc(Cl)c2)c2oc(C3CC3)cc2c1=O)c1ccc2c(c1)OC(F)(F)O2` [Example 219], the “Corr Activity (NAUC)” value is “+++ (NAUC>70% of positive control)”.

On to `CCN(C(=O)Cn1nc(-c2ccc(C(=O)OC)c(Cl)c2)c2[nH]cnc2c1=O)c1ccc2c(c1)OC(F)(F)O2` [Example 316], for which the “Corr Activity (NAUC)” value is reported as “++ (NAUC 70-40% of positive control)”.

`O=C(Cn1nc(-c2ccc3c(ccn3S(=O)(=O)c3ccccc3)c2)c2[nH]cnc2c1=O)N(c1ccc2c(c1)OC(F)(F)O2)C1CC1` [Example 423]: the “Corr Activity (NAUC)” value is recorded as “+ (NAUC<40% of positive control)”.
